According to US20240423964A1, “METHODS AND COMPOSITIONS FOR IMPROVING NEUROMUSCULAR JUNCTION MORPHOLOGY AND FUNCTION” (The Board of Trustees of the Leland Stanford Junior …, priority 2021, published 2024):
Entries after “also recorded” stand apart in the source; their conditions may differ.

What was measured:
[1] = system: mice undergoing unilateral sciatic nerve crush; assay: Sciatic nerve crush: NMJ denervation in ipsilateral EDL muscles (immunofluorescence); assay type: in vivo, mouse; details: 14 dpi, daily intraperitoneal treatment, compared to vehicle-treated controls
Protocol: (§1) Nerve injury was induced as described below. Mice were treated with SW or vehicle as control intraperitoneally once daily for 14 days post-injury as described above.
The sciatic nerve crush surgery was adopted from the protocol described previously by Bauder and Ferguson (41). The crush surgery was performed as described above with the following modifications. After locating the sciatic nerve, the nerve was mobilized gently with sharp sticks for easy access with hemostatic forceps (Fine Science Tools, 13020-12). Next, the nerve was gently placed on the bottom jaw of the forceps and was crushed for 15 seconds at 3 clicks of the forceps (first location of the locking handle). The incision was closed using 7 mm autoclaved reflex clips (World Precision Instruments, 500344; Applier: 500345). Mice were monitored for recovery from anesthesia and then returned to their home cages. […]
Confocal images were acquired on a Marianas spinning disk confocal (SDC) microscopy with Intelligent Imaging Innovations software using a 20×/NA 0.75 or an oil immersion 40×/NA 0.9 objective to capture multiple focal planes at a step size of 1 μm. Images acquired using the 20× objective were analyzed to score denervation, axonal swelling, and fragmentation of AChRs. Images acquired with the oil immersion 40× objective were analyzed to quantity NMJ-associated endolysosomal vesicles stained with α-bungarotoxin-AF647. […]

[2] = system: mice undergoing unilateral sciatic nerve crush; assay: Sciatic nerve crush: body weight and gastrocnemius/soleus muscle weight; assay type: in vivo, mouse
Protocol: as §1
(§2) The sciatic nerve crush surgery was adopted from the protocol described previously by Bauder and Ferguson (41). The crush surgery was performed as described above with the following modifications. After locating the sciatic nerve, the nerve was mobilized gently with sharp sticks for easy access with hemostatic forceps (Fine Science Tools, 13020-12). Next, the nerve was gently placed on the bottom jaw of the forceps and was crushed for 15 seconds at 3 clicks of the forceps (first location of the locking handle). The incision was closed using 7 mm autoclaved reflex clips (World Precision Instruments, 500344; Applier: 500345). Mice were monitored for recovery from anesthesia and then returned to their home cages.

[3] = system: aged mice; assay: Motor neuron apoptosis: cleaved caspase-3 in ChAT+ neurons of the lumbar spinal cord of aged mice; assay type: in vivo, mouse; details: ChAT+ neurons in ventral horn of lumbar spinal cord
Protocol: (§3) Mice were treated for 1 month once a day intraperitoneally with 5 mg/kg of SW033291 (SW) or vehicle (10% ethanol, 5% Cremophor EL, and 85% D5W (5% (wt/v) dextrose in water, Tables 3 and 4)) as previously described (2). Vehicle and SW treatments were performed in seven independent experiments for aging studies that included young and aged vehicle- and SW-treated groups. Mice were randomized based on their body weight into vehicle-treated control and SW-treated experimental groups prior to the start of injections. A full-body necropsy was performed on all mice at the experimental endpoint and mice that developed tumors were excluded from the study.
Spinal cords were harvested as previously described using hydraulic extrusion of the entire intact spinal cord. Briefly, mice were euthanized with carbon dioxide and decapitated using scissors caudally to the brain stem. The spinal columns were severed just caudal to the sacral spinal cord. A blunt 25-gauge syringe containing ice-cold PBS was inserted into the caudal end of the spinal cord to hydraulicly extrude the entire cord in a petri0dish with ice-cold PBS. The lumbar region was identified under a stereomicroscope, dissected with a sharp blade, and fixed overnight at 4 C in 4% PFA in phosphate buffer. Fixed lumbar spinal cords were embedded in O.C.T. and were frozen in liquid-nitrogen-cooled isopentane. […]

[4] = system: aged mice; assay: Aged mice treated systemically with SW033291 for one month: muscle PGE2 levels, muscle mass and force; assay type: in vivo, mouse; details: systemic treatment for one month
Source text: The prostaglandin E2 catabolizing enzyme, 15-hydroxyprostaglandin dehydrogenase (15-PGDH), is a pivotal regulator of muscle aging and that its inhibition leads to a marked increase in muscle mass and strength in aged mice^1. 15-PGDH is a nicotinamide adenine dinucleotide (NAD+) dependent enzyme that increases with aging in muscle and catabolizes PGE2. FIGS. 1A-1B show increased 15-PGDH activity along with PGE2 levels, and these are reduced in aged mouse muscle. […] Strikingly, overexpression of 15-PGDH in young mouse muscles leads to loss of muscle mass and strength after just one month^1. […]
Plantar flexion peak isometric torque (N·mm) was measured in mice as described previously (2, 42, 43). […] Data were analyzed using Aurora Scientific Dynamic Muscle Analysis Software Suite. Force was measured longitudinally in mice undergoing unilateral sciatic nerve crush injury on days 3, 7, and 14 post-injury. Peak tetanic force generated by contralateral uninjured legs was measured in all experimental mice at all time points.
Prostaglandins, PGE2, PGD2, and PGF2a, and PGE2 metabolites, 15-keto PGE2 and 13,14-dihydro-15-keto PGE2 (PGEM), were measured as described previously (2). Briefly, tissues were snap frozen in liquid nitrogen upon dissection and were kept for no more than 2 weeks in −80° C. freezer before processing for prostaglandin quantification using LC-MS/MS. […]

[5] = system: aged mice; assay: Electron microscopy of motor neuron-associated mitochondria in EDL axons of aged mice; assay type: in vivo, mouse; details: one month of treatment, listed as SW
Protocol: as §3
Extensor digitorum longus (EDL) muscles were dissected and pinned by proximal and distal tendons to the bottom of a petri-dish coated with silicone rubber. Tissues fixed in 2% Glutaraldehyde (Electron Microscopy Sciences, 16000) and 4% paraformaldehyde (Electron Microscopy Sciences, 15700) in 0.1M sodium cacodylate (Electron Microscopy Sciences, 12300) pH 7.4 for 24 hours. Tissues were then transferred from petri-dishes to microcentrifuge tubes with 1% Osmium tetroxide (Electron Microscopy Sciences, 19100) and were kept at room temperature for 1 hour with gentle rotation. […] Images were quantified by an individual blinded to experimental conditions in ImageJ.

[6] = target: 15-PGDH (Mus musculus, UniProt Q8VCC1); details: in vivo; cited from earlier work
Chain of 15-PGDH (Q8VCC1 whole entry): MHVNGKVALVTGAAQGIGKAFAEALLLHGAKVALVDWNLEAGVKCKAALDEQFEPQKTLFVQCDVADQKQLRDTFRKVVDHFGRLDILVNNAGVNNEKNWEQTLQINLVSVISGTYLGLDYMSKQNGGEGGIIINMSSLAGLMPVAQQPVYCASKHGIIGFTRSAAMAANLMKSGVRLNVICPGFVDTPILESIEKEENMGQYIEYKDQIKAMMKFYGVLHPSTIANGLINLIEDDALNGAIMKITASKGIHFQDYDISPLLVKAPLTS

[7] = system: mice undergoing unilateral sciatic nerve crush; assay: Sciatic nerve crush: plantar flexion tetanic force by nerve stimulation; assay type: in vivo, mouse
Protocol: as §1, §2
Plantar flexion peak isometric torque (N·mm) was measured in mice as described previously (2, 42, 43). Briefly, mice were anesthetized with 3% isoflurane mixed with oxygen and legs were shaved from ankle to hip to allow for reproducible access to the tibial nerve. The foot was taped to a footplate attached to a servomotor (Aurora Scientific, 300C-LR) and the knee joint was secured to a fixed steel post. Contractions were elicited by percutaneous electrical stimulation of the tibial nerve by inserting two Pt—Ir electrode needles (Aurora Scientific) posterior to the knee joint. The peak isometric torque was achieved by injecting 0.4 mA current to the tibial nerve at a frequency of 150 Hz and 0.1 ms square wave pulse. Three tetanic measurements were performed on each muscle, with 1 minute recovery between each measurement, and chose the highest value. Force measurement acquisition was blinded and the researcher performing the force measurements was unaware of treatment conditions. Data were analyzed using Aurora Scientific Dynamic Muscle Analysis Software Suite. Force was measured longitudinally in mice undergoing unilateral sciatic nerve crush injury on days 3, 7, and 14 post-injury. Peak tetanic force generated by contralateral uninjured legs was measured in all experimental mice at all time points.

[8] = system: aged mice; assay: NMJ morphology in EDL muscles of aged mice (whole-mount staining, confocal microscopy); assay type: in vivo, mouse
Protocol: as §3
Extensor digitorum longus (EDL) and soleus muscles were dissected and fixed in 4% PFA in PBS for 30 minutes at room temperature. Muscles were washed in PBS extensively and stored in PBS with 0.01% sodium azide (Sigma. S2002) at 4 C until processed. For whole-mount staining, EDLs were separated using the distal tendon into 4 pieces to make thinner sheets of muscles for staining. The proximal and distal tendons of either soleus or EDL pieces were removed to allow for teasing thin bundles of muscle fibers using fine forceps under a stereomicroscope. Care was given in handling tissues to avoid touching the end plate band with forceps tips. Next, myofiber bundles were incubated in PBS-T (0.3% Triton X-100 in PBS) for 1 hour and were blocked in blocking solution (5% goat serum and 0.3% Triton X-100 in PBS) supplemented with 1:50 dilution of goat anti-mouse IgG (Jackson ImmunoResearch, 115-007-003) and IgM (Jackson ImmunoResearch, 115-007-020) for 1 hour at room temperature. Tissues were then incubated with a primary antibody mix against neurofilament and synaptic vesicle (2H3 and SV, DSHB) at 5 μg/ml for a minimum of 24 hours at 4 C with gentle shaking. Tissues were then rinsed with PBS-T and incubated with a secondary antibody mix (goat anti-mouse IgG1-Cy™3, Bungarotoxin-AF™647, and Hoechst 33342) diluted in blocking solution overnight at 4° C. with gentle shaking. Tissues were washed extensively with PBS and mounted in Fluoromount-G™ mounting medium (Southern Biotech, 0100-01) and left overnight to equilibrate prior to confocal microscopy.
Confocal images were acquired on a Marianas spinning disk confocal (SDC) microscopy with Intelligent Imaging Innovations software using a 20×/NA 0.75 or an oil immersion 40×/NA 0.9 objective to capture multiple focal planes at a step size of 1 μm. Images acquired using the 20× objective were analyzed to score denervation, axonal swelling, and fragmentation of AChRs. Images acquired with the oil immersion 40× objective were analyzed to quantity NMJ-associated endolysosomal vesicles stained with α-bungarotoxin-AF647. Maximum intensity projection images were created from confocal slices using NIH ImageJ software. Data acquisition and NMJ scoring were performed by two researchers blinded to treatment conditions.

[9] = aged mice, one month of intraperitoneal administration
[10] = geriatric mice (>26 months), one month once daily i.p., EDL

CCCC[S+]([O-])c1sc2nc(-c3cccs3)cc(-c3ccccc3)c2c1N (centres unmarked) [SW033291, 2-(butylsulfinyl)-4-phenyl-6-(thiophen-2-yl)thieno[2,3-b]pyridin-3-amine]
denervation rates in EDLs ipsilateral to the nerve crush [1]: significantly reduced | muscle mass in injured legs ([2]; 14 dpi, gastrocnemius and soleus): significant increase | muscle weight of the contralateral control legs, difference between vehicle and SW treatment ([2]; contralateral control legs, 14 days post nerve crush): No differences | animals body weight, difference between vehicle and SW treatment ([2]; nerve crush model): No differences | activated caspase-3 in aged lumbar motor neurons (apoptosis) [3]: lower levels | increase in muscle mass and force [4]: 15-20% | muscle PGE2 levels [4]: to the physiological levels measured in young mice | mitochondrial morphology in motor neurons (distal axons / heavily myelinated axons of EDL) [5]: improvement, enhancement, and/or rejuvenation of mitochondrial morphology; also recorded: improved, enhanced, and/or rejuvenated to compact circular mitochondria morphology resembling that seen in young | catabolic regulators of muscle atrophy such as atrogenes, ubiquitin ligases MuRF1 (Trim63) and Fbxo32, and TGF-beta signaling [6]: reduction | tetanic plantar flexor force in the injured leg, difference between vehicle and SW ([7]; 3 dpi until 7 dpi): no differences between the experimental groups | plantar flexion force of the contralateral (uninjured) legs, difference between vehicle and SW ([7]; contralateral control legs, listed as SW): no significant differences | increase in specific force (force normalized to gastrocnemius and soleus weight) ([7]; mean±S.D., compared to vehicle-treated control mice, 14 days post nerve crush): 52±10% | increase in plantar flexion force generation in injured legs ([7]; mean±S.D., daily intraperitoneal treatment after nerve crush): 69±8% | morphology of the AChRs [8, 9]: improves, enhances, and/or rejuvenates the intact morphology of the AChRs | number of AChR rich endo/lysosomal vesicles [8, 9]: striking reduction | number of AChR rich endo/lysosomal vesicles ([8]; aged mice, one month of intraperitoneal administration, listed as SW): reduces | aged NMJ morphology [8, 10]: improved, enhanced, and/or rejuvenated to branched and pretzel-like structures found in young EDLs | incidence of AChR fragmentation [8, 10]: significantly reduced | incidence of motor neuron axonal swelling [8, 10]: significantly reduced | rate of denervation in aged EDLs ([8]; geriatric mice (>26 months), one month once daily i.p., mean±S.E.M.): 12.4±2.9
